Format in all cases: cell-based
The subject of assay [1] is fetal dopaminergic neurons (TH+) in culture. Kind of assay: dopaminergic neuron spontaneous degeneration model, second protocol (Mourlevat et al.), TH+ neuron count after 10 days. The conditions noted are these: Rattus norvegicus, 240 h, read-out: TH+ neurons in % of control ± Std. Err. Here is the method:
This second protocol is described in the article by Mourlevat, P. P. Michel et al. Molecular Pharmacology 2003, 64:578-586 (“Prevention of Dopaminergic Neuronal Death by Cyclic AMP in Mixed Neuronal/Glial Mesencephalic Cultures Requires the Repression of Presumptive Astrocytes”). […] Compounds according to the invention were evaluated at 50 μM except compound 4bc which was assessed at 100 μM.

The subject of assay [2] is dopaminergic neurons (TH+) of rat embryo ventral midbrain culture. Kind of assay: neuritogenic activity: neurite outgrowth per cell / differentiation of TH+ neurons. The conditions noted are these: Rattus norvegicus, Neuron; compound at 100 nM; read-out: Diff in % of control ± SEM. Here is the method: Quinoxaline derivatives were tested on a dopaminergic neuron spontaneous degeneration model in culture according to the protocol described in the article by F. Schmidt et al. […] This model consists of culturing rat embryo ventral midbrain. This part of the brain in culture contains a proportion of dopaminergic neurons of 5% of the total neurons; the other neurons are mainly GABAergic. These cultures are also composed of glial cells, i.e., astrocytes, oligodendrocytes and microglia. These cultures are characterized by progressive neuron death. […] To assess the neuritogenic activity of compounds according to the invention, neurite outgrowth per cell was quantified using the Neurite Outgrowth software developed by Xplora Nova. At least 60 neurons per condition were photographed and studied.

Assay [3] has the same test system. Kind of assay: dopaminergic neuron spontaneous degeneration model in culture, TH+ neuron count after 8 days (Schmidt et al. protocol). The conditions noted are these: Rattus norvegicus, Neuron, 192 h; compound at 100 nM; 8 days of culture; read-out: TH+ neurons in % of control ± SEM. Here is the method:
Quinoxaline derivatives were tested on a dopaminergic neuron spontaneous degeneration model in culture according to the protocol described in the article by F. Schmidt et al. […] This model consists of culturing rat embryo ventral midbrain. This part of the brain in culture contains a proportion of dopaminergic neurons of 5% of the total neurons; the other neurons are mainly GABAergic. These cultures are also composed of glial cells, i.e., astrocytes, oligodendrocytes and microglia. These cultures are characterized by progressive neuron death.

Setting [4] is: compound at 50 μM, 10 days of culture, one experiment in triplicate.

SMILES strings stand for the structures. Like-named read-outs stand apart in the source and are kept apart here.

Turning to `Nc1ccc2ncc(-c3ccccc3)nc2c1` [Compound 4ac], the activity at 50 µM in assay [1] is 189 ± 11%.

Regarding `CCCCc1cnc2ccc(N)cc2n1` [Compound 4ad], the activity at 0.1 µM in assay [2] is 118%; in assay [3] it was 101%.

For `CCCCc1nc2cc(N)ccc2nc1C` [Compound 4bd], the activity at 0.1 µM in assay [2] was 102%; in assay [3], 121%.

With `COc1ccc(-c2nc3cc(N)ccc3nc2-c2ccccc2)cc1` [Compound 4ch], the activity at 50 µM in assay [1] (setting [4]) came to 130 ± 10%.

As to `CCCCCCc1nc2ccc(N)cc2nc1CCCC` [Compound 4ed], the results for the activity at 0.1 µM in assay [2] and in assay [3] were 104% and 115%, respectively.

`Cc1nc2ccc(N)c(Br)c2nc1-c1ccccc1` [Compound 7bc]: the activity at 50 µM in assay [1] (setting [4]) is 153 ± 12%.

`Cc1nc2ccc(N)c(Cl)c2nc1-c1ccccc1` [Compound 8bc]: the activity at 50 µM in assay [1] (setting [4]) was 129 ± 8%.

Consider `C#CCNc1ccc2nc(C)c(-c3ccccc3)nc2c1` [Compound 9bc], for which the activity at 50 µM in assay [1] (setting [4]) is 174 ± 15%.

For `C#CCNc1ccc2nc(C)c(-c3ccc(F)cc3)nc2c1` [Compound 9bm], in assay [1] (setting [4]), the activity at 50 µM was 166 ± 15%.

The record behind these values is patent US9434701B2, “Aminoquinoxaline derivatives for treatment of neurodegenerative diseases” (CENTRE NATIONAL DE LA RECHERCHE SCIENTIFIQUE (CNRS), priority 2011, dated 2016).
